# Source: patent publication US20200253888A1, “USE OF BIOMARKERS ASSOCIATED WITH LINE-1” (THE ARIZONA BOARD OF REGENTS ON BEHALF OF THE UNIVERSITY OF …, priority 2016, published 2020)
# Experiments:
# [1] = system: L1; details: HeLa, HMEM, vSMC and mK4 cell lines; previously shown (ref. 33); cited from earlier work
# [2] = system: phospho-Smad2, E-Cadherin, N-Cadherin, vimentin; assay: Activation of the TGF-β1 signaling pathway by B[a]P in HepG2 cells (immunoblotting); format: cell-based, human; details: data not shown
# Procedure: FIG. 4 is experimental results showing B[a]P induces the activation of the TGF-β1 signaling pathway in HepG2 cells. Cells were stimulated for different periods of times by replacing cell media for supplemented fresh media containing 1.5 μM B[a]P or an equivalent DMSO concentration (0.5%). Whole cell lysates were analyzed by immunoblotting for phospho-Smad2, total Smad2, E-Cadherin, N-Cadherin, and GAPDH (loading control).
# (§1) Cell culture and treatments: HepG2 hepatocellular carcinoma cell line was purchased from the American Type Culture Collection (ATCC). Cells were grown in RPMI medium supplemented with 10% fetal bovine serum (FBS, Thermo Fisher Scientific, Grand Island, N.Y.) supplemented with 62.5 μg/mL penicillin and 100 μg/mL streptomycin (Thermo Fisher Scientific) in a humidified incubator at 37° C. with 5% CO2. HepG2 cells were pleated on day before treatment. Cells were between 40-50% confluent at the treatment time. […] All protein concentrations were determined using the bicinchoninic acid assay (Thermo Fisher Scientific).
# Immunoblotting: Total cell lysates were resolved by SDS-Tris PAGE and then electrotransferred onto polyvinylidine fluoride membranes (Thermo Fisher Scientific) in Tris-glycine buffer containing 20% methanol. Proteins were detected by immunoblotting. […]
# [3] = system: AhR; assay: AhR knockdown by siRNA in HepG2 cells (immunoblot); format: cell-based, human; details: HepG2, siRNA transfection
# Procedure: FIG. 3 is experimental results showing B[a]P induces the TG-β1 mRNA expression through of its receptor AhR in HepG2 cells. A) Cell were treated with 1.5 μM B[a]P or an equivalent DMSO concentration (0.5%) for different periods of times. B) Cells were transfected without siRNA (mock), with AhR target-specific siRNAs, or with a control siRNA (scramble), then treated with 1.5 μM B[a]P or DMSO for 48 h. Total RNA was isolated, and 1 μg of RNA was subjected to cDNA synthesis. Samples were analyzed via RT-PCR using human specific primers for TGF-μ1 and GAPDH. C) Some transfected cells were lysed and the whole cell lysates was analyzed by immunoblotting for AhR or GAPDH antibodies (loading control) to confirm target knockdown.
# Immunoblotting: Total cell lysates were resolved by SDS-Tris PAGE and then electrotransferred onto polyvinylidine fluoride membranes (Thermo Fisher Scientific) in Tris-glycine buffer containing 20% methanol. Proteins were detected by immunoblotting. Where indicated, membranes were stripped of bound antibodies using 62.5 mmol/L Tris-HCl (pH 6.7), 100 mmol/L 2-mercaptoethanol, and 2% SDS for 30 minutes at 60° C. and then reprobed as described in figure legends.
# (§2) RNA interference: Small interfering RNA (siRNA) duplexes sequences were chemically synthesized and annealed by Thermo Fisher Scientific. […]
# [4] = system: L1 mRNA (ORF1 and ORF2); assay: B[a]P-induced L1 mRNA expression after siRNA transfection in HepG2 cells (qRT-PCR); format: cell-based, human
# Procedure: FIG. 5 is experimental results showing B[a]P-mediated L1 mRNA expression requires TGFR1, Smad2 and smad3 in HepG2 cells. Cells were transfected without siRNA (mock), with target-specific siRNAs for Smad2, Smad3, TGFBR1, or with a control siRNA (scramble), then treated with 1.5 μM B[a]P or DMSO for 48 h. Total RNA was isolated, and 1 μg of RNA was subjected to cDNA synthesis. Samples were analyzed via RT-PCR using human specific primers for L1 (ORF1 and ORF2) and GAPDH. C) Some transfected cells were lysed and the whole cell lysates was analyzed by immunoblotting for TGFBR1, Smad2/3 or GAPDH antibodies (loading control) to confirm target knockdown.
# RT-PCR: Total RNA was isolated from cells using the RNeasy Plus Kit (Qiagen) and 2 μg RNA was digested with TurboDNase-I (Thermo Fisher Scientific). A total DNAse digested RNA (1 μg) was employed for cDNA synthesis using high-capacity cDNA reverse transcription Kit (Thermo Fisher Scientific). The resulting cDNAs (50 ng) were used as templates for qRT-PCR to analyze the mRNA expression using Power SYBR® Green PCR Master Mix and primers for L1-ORF-1, L1-ORF-2, TGF-β1 and GAPDH. The fold changes were determined by comparing the ACT value of each product normalized to GAPDH as an internal control.
# as §2
# [5] = system: L1 mRNAs (ORF-1 and ORF-2); assay: TGF-β1-induced L1 mRNA expression in HepG2 cells (qRT-PCR); format: cell-based, human
# Procedure: FIG. 1 is experimental results showing TGF-β1 induces the L1 mRNA expression in HepG2 cells. HepG2 were stimulated for different times by adding serum-free media with or without (untreated) 10 ng/ml TGF-β1. Total RNA was isolated, and 1 μg of RNA was subjected to cDNA synthesis. Samples were analyzed via RT-PCR using specific primers for human L1 (ORF-1 and ORF-2) and GAPDH. Expression relative to untreated cells.
# as §1
# RT-PCR: Total RNA was isolated from cells using the RNeasy Plus Kit (Qiagen) and 2 μg RNA was digested with TurboDNase-I (Thermo Fisher Scientific). […] The fold changes were determined by comparing the ACT value of each product normalized to GAPDH as an internal control. […]
# [6] = system: L1 proteins (ORF1p and ORF2p); assay: TGF-β1-mediated L1 expression in BEAS-2B lung cells with or without juglone (immunoblotting); format: cell-based; details: BEAS-2B cells, 10 ng/ml TGF-β1, immunoblotting
# Procedure: In the experiments, non-malignant BEAS-2B lung cells were untreated or treated with 10 ng/ml TGF-β1 and co-treated with 1 μM juglone or ethanol and whole lyses were analyzed by immunoblotting for L1 proteins (ORF1p and ORF2p), vimentin, DNMT1 and GAPDH (loading control).
compound,measurement,setting,value
"c1ccc2c(c1)cc1ccc3cccc4ccc2c1c34 [B[a]P, Benzo[a]pyrene]",transcriptional expression of L1,[1],reactivates transcriptional expression of L1
same,expression of vimentin,[2],not induced
"AhR siRNA: siRNA duplex for AhR (ID#s1200), SEQ ID NO: 9 and 10 (chain 1 CGGAUGAAAUCCUGACGUATT; chain 2 UACGUCAGGAUUUCAUCAGTT; chemistry not given here)",reduction in AhR levels compared with controls,[3],> 90%
"Smad2 siRNA: siRNA duplex for Smad2 (ID#115715), SEQ ID NO: 13 and 14 (chain 1 GCUUCUCUGAACAAACCAGTT; chain 2 CUGGUUUGUUCAGAGAAGCTG; chemistry not given here)",baseline L1 mRNA expression after knockdown,[4],slight reduction
"Smad3 siRNA: siRNA duplex for Smad3 (ID#107877), SEQ ID NO: 15 and 16 (chain 1 GGCCCAGUGCAUAUGCAAUTT; chain 2 AUUGCAUAUGCACUGGGCCTC; chemistry not given here)",baseline L1 mRNA expression after knockdown,[4],slight reduction
TGF-β1: Recombinant human TGF-β1 purchased from R&D Systems,time of maximal peak induction of L1 mRNAs,"[5]; HepG2, 10 ng/ml TGF-β1, time course 4 h-24 h",8 h
same,expression levels of L-1 mRNAs (ORF-1 and ORF-2),"[5]; HepG2, 10 ng/ml TGF-β1 in serum-free media, after 8 h to 24 h treatment, relative to untreated cells",induced an evident increase
same,expression of L1,[6],induces the expression of L1
